# Data: patent US8952157B2, “Apoptosis-inducing agents for the treatment of cancer and immune and autoimmune diseases” (AbbVie Inc., priority 2008, dated 2015)
# Biological target: GST-Bcl-2 (Homo sapiens (Human), UniProt P10415)
# Test: Time Resolved-Fluorescence Resonance Energy Transfer (TR-FRET) Bcl-2 binding assay
# Conditions: GST-Bcl-2 1 nM, F-Bak peptide probe 100 nM, Tb-anti-GST antibody 1 nM; Ki by Wang's equation
# Procedure, shortened: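 Ki values derived from TR-FRET displacement of F-Bak peptide from GST-Bcl-2, detected with Tb-labelled anti-GST antibody (ex 340, em 520/495 nm). Compound dilution series started at 50 μM (2× starting concentration); room-temperature incubation 3 hours.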
# Chain of GST-Bcl-2 (P10415 whole entry): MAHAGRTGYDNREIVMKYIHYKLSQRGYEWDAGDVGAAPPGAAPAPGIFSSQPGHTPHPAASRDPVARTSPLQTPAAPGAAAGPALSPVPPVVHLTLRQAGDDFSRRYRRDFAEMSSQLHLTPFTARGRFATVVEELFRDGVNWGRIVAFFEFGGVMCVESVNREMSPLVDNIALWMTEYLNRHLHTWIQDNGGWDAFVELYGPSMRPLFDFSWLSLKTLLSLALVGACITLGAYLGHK
row,Structure (SMILES),Ki [nM]
1,"CC1(C)CC(c2ccc(Cl)cc2)=C(CN2CCN(c3ccc(C(=O)NS(=O)(=O)c4ccc(NCC5CCOCC5)c([N+](=O)[O-])c4)c(Oc4cnc(N)c(Cl)c4)c3)CC2)CO1 [Example 387, 2-[(6-amino-5-chloropyridin-3-yl)oxy]-4-(4-{[4-(4-chlorophenyl)-6,6-dimethyl-5,6-dihydro-2H-pyran-3-yl]methyl}piperazin-1-yl)-N-({3-nitro-4-[(tetrahydro-2H-pyran-4-ylmethyl)amino]phenyl}sulfonyl)benzamide]",< 0.01
2,"CC1(C)CC(c2ccc(Cl)cc2)=C(CN2CCN(c3ccc(C(=O)NS(=O)(=O)c4cnc(OCC5(F)CCOCC5)c(Cl)c4)c(Oc4cc5cc[nH]c5cc4F)c3)CC2)CO1 [Example 388, N-({5-chloro-6-[(4-fluorotetrahydro-2H-pyran-4-yl)methoxy]pyridin-3-yl}sulfonyl)-4-(4-{[4-(4-chlorophenyl)-6,6-dimethyl-5,6-dihydro-2H-pyran-3-yl]methyl}piperazin-1-yl)-2-[(6-fluoro-1H-indol-5-yl)oxy]benzamide]",0.02
3,"CC1(C)CCC(CN2CCN(c3ccc(C(=O)NS(=O)(=O)c4ccc(NCC5CCOC5)c([N+](=O)[O-])c4)c(Oc4cnc(N)c(Cl)c4)c3)CC2)=C(c2ccc(Cl)cc2)C1 (stereo not drawn) [Example 389, 2-[(6-amino-5-chloropyridin-3-yl)oxy]-4-(4-{[2-(4-chlorophenyl)-4,4-dimethylcyclohex-1-en-1-yl]methyl}piperazin-1-yl)-N-({3-nitro-4-[(tetrahydrofuran-3-ylmethyl)amino]phenyl}sulfonyl)benzamide]",< 0.01
4,"CC1(C)CC(c2ccc(Cl)cc2)=C(CN2CCN(c3ccc(C(=O)NS(=O)(=O)c4cnc(OCC5(F)CCOCC5)c(Cl)c4)c(Oc4cnc(N)c(Cl)c4)c3)CC2)CO1 [Example 390, 2-[(6-amino-5-chloropyridin-3-yl)oxy]-N-({5-chloro-6-[(4-fluorotetrahydro-2H-pyran-4-yl)methoxy]pyridin-3-yl}sulfonyl)-4-(4-{[4-(4-chlorophenyl)-6,6-dimethyl-5,6-dihydro-2H-pyran-3-yl]methyl}piperazin-1-yl)benzamide]",< 0.01
5,"Nc1ncc(Oc2cc(N3CCN(CC4=C(c5ccc(Cl)cc5)CCC5(CCN(C(CF)CF)CC5)C4)CC3)ccc2C(=O)NS(=O)(=O)c2ccc(NCC3CCOCC3)c([N+](=O)[O-])c2)cc1Cl [Example 391, 2-[(6-amino-5-chloropyridin-3-yl)oxy]-4-[4-({9-(4-chlorophenyl)-3-[2-fluoro-1-(fluoromethyl)ethyl]-3-azaspiro[5.5]undec-8-en-8-yl}methyl)piperazin-1-yl]-N-({3-nitro-4-[(tetrahydro-2H-pyran-4-ylmethyl)amino]phenyl}sulfonyl)benzamide]",< 0.01
6,"CC(C)N1CCC2(CCC(c3ccc(Cl)cc3)=C(CN3CCN(c4ccc(C(=O)NS(=O)(=O)c5ccc(NCC6CCOCC6)c([N+](=O)[O-])c5)c(Oc5cnc(N)c(Cl)c5)c4)CC3)C2)CC1 [Example 392, 2-[(6-amino-5-chloropyridin-3-yl)oxy]-4-(4-{[9-(4-chlorophenyl)-3-isopropyl-3-azaspiro[5.5]undec-8-en-8-yl]methyl}piperazin-1-yl)-N-({3-nitro-4-[(tetrahydro-2H-pyran-4-ylmethyl)amino]phenyl}sulfonyl)benzamide]",< 0.01
7,"CN(C)CC(=O)N1CCC(F)(COc2ncc(S(=O)(=O)NC(=O)c3ccc(N4CCN(CC5=C(c6ccc(Cl)cc6)CC(C)(C)CC5)CC4)cc3Oc3cnc(N)c(Cl)c3)cc2Cl)CC1 [Example 393, 2-[(6-amino-5-chloropyridin-3-yl)oxy]-N-[(5-chloro-6-{[1-(N,N-dimethylglycyl)-4-fluoropiperidin-4-yl]methoxy}pyridin-3-yl)sulfonyl]-4-(4-{[2-(4-chlorophenyl)-4,4-dimethylcyclohex-1-en-1-yl]methyl}piperazin-1-yl)benzamide]",< 0.01
8,"CC1(C)CCC(CN2CCN(c3ccc(C(=O)NS(=O)(=O)c4ccc(N[C@@H]5CCN(C(CF)CF)C5)c([N+](=O)[O-])c4)c(Oc4cnc(N)c(Cl)c4)c3)CC2)=C(c2ccc(Cl)cc2)C1 [Example 394, 2-[(6-amino-5-chloropyridin-3-yl)oxy]-4-(4-{[2-(4-chlorophenyl)-4,4-dimethylcyclohex-1-en-1-yl]methyl}piperazin-1-yl)-N-{[4-({(3R)-1-[2-fluoro-1-(fluoromethyl)ethyl]pyrrolidin-3-yl}amino)-3-nitrophenyl]sulfonyl}benzamide]",0.018
9,"CC1(C)CCC(CN2CCN(c3ccc(C(=O)NS(=O)(=O)c4ccc(NCC5CCOCC5)c([N+](=O)[O-])c4)c(Oc4cc(N)ncc4Br)c3)CC2)=C(c2ccc(Cl)cc2)C1 [Example 395, 2-[(2-amino-5-bromopyridin-4-yl)oxy]-4-(4-{[2-(4-chlorophenyl)-4,4-dimethylcyclohex-1-en-1-yl]methyl}piperazin-1-yl)-N-({3-nitro-4-[(tetrahydro-2H-pyran-4-ylmethyl)amino]phenyl}sulfonyl)benzamide]",0.077
10,"CC1(C)CCC(CN2CCN(c3ccc(C(=O)NS(=O)(=O)c4ccc(NCC5CCC(F)(F)CC5)c([N+](=O)[O-])c4)c(Oc4cnc(N)c(Cl)c4)c3)CC2)=C(c2ccc(Cl)cc2)C1 [Example 396, 2-[(6-amino-5-chloropyridin-3-yl)oxy]-4-(4-{[2-(4-chlorophenyl)-4,4-dimethylcyclohex-1-en-1-yl]methyl}piperazin-1-yl)-N-[(4-{[(4,4-difluorocyclohexyl)methyl]amino}-3-nitrophenyl)sulfonyl]benzamide]",< 0.01
11,"CC1(C)CCC(CN2CCN(c3ccc(C(=O)NS(=O)(=O)c4cnc(OC[C@@H]5CCN(C(CF)CF)C5)c(Cl)c4)c(Oc4cnc(N)c(Cl)c4)c3)CC2)=C(c2ccc(Cl)cc2)C1 [Example 399, 2-[(6-amino-5-chloropyridin-3-yl)oxy]-N-{[5-chloro-6-({(3R)-1-[2-fluoro-1-(fluoromethyl)ethyl]pyrrolidin-3-yl}methoxy)pyridin-3-yl]sulfonyl}-4-(4-{[2-(4-chlorophenyl)-4,4-dimethylcyclohex-1-en-1-yl]methyl}piperazin-1-yl)benzamide]",< 0.01
12,"CC1(C)CCC(CN2CCN(c3ccc(C(=O)NS(=O)(=O)c4cnc(OC[C@@H]5CCN(CC(F)F)C5)c(Cl)c4)c(Oc4cnc(N)c(Cl)c4)c3)CC2)=C(c2ccc(Cl)cc2)C1 [Example 400, 2-[(6-amino-5-chloropyridin-3-yl)oxy]-N-[(5-chloro-6-{[(3R)-1-(2,2-difluoroethyl)pyrrolidin-3-yl]methoxy}pyridin-3-yl)sulfonyl]-4-(4-{[2-(4-chlorophenyl)-4,4-dimethylcyclohex-1-en-1-yl]methyl}piperazin-1-yl)benzamide]",0.082
13,"CC1(C)CCC(CN2CCN(c3ccc(C(=O)NS(=O)(=O)c4cnc(OCC5(F)CCOCC5)c(F)c4)c(Oc4cnc(N)c(Cl)c4)c3)CC2)=C(c2ccc(Cl)cc2)C1 [Example 402, 2-[(6-amino-5-chloropyridin-3-yl)oxy]-4-(4-{[2-(4-chlorophenyl)-4,4-dimethylcyclohex-1-en-1-yl]methyl}piperazin-1-yl)-N-({5-fluoro-6-[(4-fluorotetrahydro-2H-pyran-4-yl)methoxy]pyridin-3-yl}sulfonyl)benzamide]",0.039
14,"CC1(C)CCC(CN2CCN(c3ccc(C(=O)NS(=O)(=O)c4cnc(OCC5(F)CCN(CC(F)F)CC5)c(Cl)c4)c(Oc4cnc(N)c(Cl)c4)c3)CC2)=C(c2ccc(Cl)cc2)C1 [Example 403, 2-[(6-amino-5-chloropyridin-3-yl)oxy]-N-[(5-chloro-6-{[1-(2,2-difluoroethyl)-4-fluoropiperidin-4-yl]methoxy}pyridin-3-yl)sulfonyl]-4-(4-{[2-(4-chlorophenyl)-4,4-dimethylcyclohex-1-en-1-yl]methyl}piperazin-1-yl)benzamide]",2.14
15,"CC1(C)CCC(CN2CCN(c3ccc(C(=O)NS(=O)(=O)c4ccc(OCC5(F)CCOCC5)c(Cl)c4)c(Oc4cnc(N)c(Cl)c4)c3)CC2)=C(c2ccc(Cl)cc2)C1 [Example 404, 2-[(6-amino-5-chloropyridin-3-yl)oxy]-N-({3-chloro-4-[(4-fluorotetrahydro-2H-pyran-4-yl)methoxy]phenyl}sulfonyl)-4-(4-{[2-(4-chlorophenyl)-4,4-dimethylcyclohex-1-en-1-yl]methyl}piperazin-1-yl)benzamide]",0.069
16,"CC1(C)CCC(CN2CCN(c3ccc(C(=O)NS(=O)(=O)c4cnc(OCC5(F)CCN(C(CF)CF)CC5)c(C(F)(F)F)c4)c(Oc4cnc(N)c(Cl)c4)c3)CC2)=C(c2ccc(Cl)cc2)C1 [Example 405, 2-[(6-amino-5-chloropyridin-3-yl)oxy]-4-(4-{[2-(4-chlorophenyl)-4,4-dimethylcyclohex-1-en-1-yl]methyl}piperazin-1-yl)-N-{[6-({4-fluoro-1-[2-fluoro-1-(fluoromethyl)ethyl]piperidin-4-yl}methoxy)-5-(trifluoromethyl)pyridin-3-yl]sulfonyl}benzamide]",0.354
17,"CC1(C)CCC(CN2CCN(c3ccc(C(=O)NS(=O)(=O)c4ccc(NCC5CCOCC5)c([N+](=O)[O-])c4)c(Oc4ccccc4-c4cn[nH]c4)c3)CC2)=C(c2ccc(Cl)cc2)C1 [Example 406, 4-(4-{[2-(4-chlorophenyl)-4,4-dimethylcyclohex-1-en-1-yl]methyl}piperazin-1-yl)-N-({3-nitro-4-[(tetrahydro-2H-pyran-4-ylmethyl)amino]phenyl}sulfonyl)-2-[2-(1H-pyrazol-4-yl)phenoxy]benzamide]",0.166
18,"CC1(C)CCC(CN2CCN(c3ccc(C(=O)NS(=O)(=O)c4ccc(NCC5CCOCC5)c([N+](=O)[O-])c4)c(Oc4ccccc4-c4cccnc4N)c3)CC2)=C(c2ccc(Cl)cc2)C1 [Example 407, 2-[2-(2-aminopyridin-3-yl)phenoxy]-4-(4-{[2-(4-chlorophenyl)-4,4-dimethylcyclohex-1-en-1-yl]methyl}piperazin-1-yl)-N-({3-nitro-4-[(tetrahydro-2H-pyran-4-ylmethyl)amino]phenyl}sulfonyl)benzamide]",0.946
